Measurements: patent US8816047B2 (Cure DM Group Holdings, LLC, priority 2007, dated 2014)
“Also recorded” adds a separate entry of the source. Like-named read-outs stand apart in the source and are kept apart here. Blank lines part the entries; values can stand above or below the compound they belong to. Where a SMILES comes first, the peptide text is derived from it. Bridges are numbered along the chain shown (N, C = ends). Roman numbers before positions name the chains, in order. Where no end group is shown, it is not given here.

Experiments:
[1] = In vitro stability of peptides to proteases in human plasma at 37 C (HPLC/LC-MS); type: in vitro ADME; conditions: for stability to plasma proteases: 1 hr
Method: The peptides were incubated in human plasma, at 37° C. Sample incubations were performed over a period of 1 hr. Individual time points of 1, 5, 10, 30, and 60 minutes were used to follow the reactions. Deactivation of plasma proteases at each time point was achieved by heating the samples at 100° C. for 1 min. Following work-up the plasma treated samples were evaluated by reverse phase chromatography in series with at mass spectrometer, HPLC/LC-MS, against control samples.
Plasma Treated with HIP and Optimized HIP peptides were evaluated over 1, 5, 10, 30 and 60 minutes. For each time point 0.70 ml of plasma was pipetted into a 10 ml test tube. To each was added 0.30 ml of a stock solution of HIP or Optimized HIP peptide (1.66 mg/ml) prepared in phosphate buffered saline. The plasma/peptide samples were incubated at 37° C. for each time point followed by heating at 100° C. to inactivate the proteolytic activity of plasma proteases. Following inactivation, the samples were diluted with 1 ml of H2O, centrifuged and the supernatant liquid removed for analysis.
Samples were analyzed on a C-18 reverse phase column (50 mm×2.0 mm) using 0.07% TFA in H2O as buffer A and 0.07% TFA in acetonitrile as buffer B. A linear gradient of 98% A/2% B progressing to 30% A/70% B over 10 min. was used at a flow rate of 0.4 ml/min. Eluant was monitored by UV at a wavelength of 220 nm and by mass spectroscopy. Comparisons of chromatographic profiles of plasma treated peptides (37° C.) against peptide reference samples and plasma controls were used to determine the relative stability of peptide to plasma treatment.
T=0: Plasma (0.7 ml) plus peptide stock solution (0.3 ml), heat 100° C. 1 min. add 1 ml H2O, centrifuge.
Plasma background control: 0.7 ml plasma plus PBS (0.3 ml), heat 100° C. 1 min, add 1 ml H2O, centrifuge.
Peptide reference heat treated: Peptide stock solution (0.3 ml) plus 0.7 ml PBS, heat 100° C. 1 min., add 1 ml H2O.
Peptide reference no heat: Peptide stock solution (0.3 ml) add 0.7 ml PBS plus 1 ml H2O.

human plasma = conditions: 37° C., up to 60 minutes
[2] = HIP2B stability study in distilled water by LC/MS; type: physicochemical; conditions: 4-8° C. and 25° C., 1, 2 and 3 weeks
Method: Experimental Procedure. The study was initiated with two groups of eight samples each. One group is maintained at 4-8° C. and the other at 25° C., as part of a 2 month stability study. Each sample contains 4.57 milligrams of HIP2B in 5 micro liters of distilled water. One sample from each temperature group is removed and placed in a minus 20° C. freezer, for storage, every seven days until an LC/MS analysis can be performed. A series of samples were evaluated after 1, 2, and 3 weeks in the stability study against a control sample of HIP2B which had been prepared at the initiation of the study and stored at −20° C. After three weeks of stability testing at each of the temperatures described above, all of the samples were unchanged as determined by LC/MS and therefore deemed stable at 1, 2, and three weeks.

[3] = Pharmacokinetics and absolute bioavailability in Sprague Dawley rats, IV and SC 4 mg/kg (LC/MS MS); type: in vivo, rat; conditions: for F: SQ versus IV; for appearance of animals post-dosing: all times post-dosing, each route; for C0: estimated; for plasma levels: intravenous or subcutaneous
Method: The absolute bioavailability and pharmacodynamic study was conducted in Sprague Dawley rats following intravenous and subcutaneous dose administration of HIP2 (FIG. 24), Optimized HIP2B and INGAP. The purpose was to determine the absorption, absolute bioavailability and plasma levels of HIP2, Optimized HIP2B and INGAP in male rats following two different routes of administration.
Six Groups of five male Sprague Dawley rats were administered HIP2, HIP2B or INGAP by intravenous and subcutaneous routes as follows in table below.
Ten serial blood plasma samples (0.03 ml each) were collected from a jugular vein catheter from five animals per group at 5, 10, 15, 30 minutes, 45 minutes followed by samples at 1, 2, 3, 8, and 24 hours post-dose. Plasma was collected into tubes containing EDTA. Following collection, samples were kept chilled on cool packs before centrifugation and transfer to pre-labeled microfuge tubes for storage at −70° C. or below.
Rat plasma samples of 200 μl each were added to a micro centrifuge tube containing 1 ml of acetonitrile (0.07% trifluoroacetic acid, TFA) and stirred with a vortex mixer for 1 min. followed by centrifugation to remove precipitated plasma proteins. The supernatant solution was removed and evaporated, using a Speed Vac, to dryness. To the micro centrifuge tube containing the dry pellet was added 200 μl of 20:80 acetonitrile:water (containing 0.07% TFA). The sample was centrifuged to remove any insoluble material and the supernatant solution transferred to analytical vials for LC/MS MS analysis. The mass spectrometer was calibrated to detect the most abundant daughter ion/ions observed for each of the respective reference samples of HIP2B (M=286.0), HIP2 (M=287.1) and INGAP (M=212.2, 356.1, 373.9). Optimized HIP2B, HIP2 and INGAP plasma samples were analyzed on a C-18 reverse phase column (50 mm×2.0 mm, Varian Pursuit XRS3) using 0.07% TFA in H2O as buffer A and 0.07% TFA in acetonitrile as buffer B. A linear gradient of 98% A/2% B progressing to 100% B over 9 minutes was used at a flow rate of 0.4 ml/min.
The following plasma controls were treated as described above and used to establish a standard concentration curve: • 1. Blank plasma as a background control • 2. Five standard plasma samples containing 6.7×10^4, 6.7×10^3, 6.7×10^2, […] ng/ml of HIP2B, HIP2 and INGAP

diabetic mice = assay: Streptozocin diabetic mouse model, 28 days twice-daily IP dosing (Example 2); type: in vivo
Method: In Vivo Studies. HIP3, HIP1 and HIP2 has been the subject of in vivo studies in mice. […] The subject number was selected to yield a sufficient number of diabetic animals for the study and animals were randomly assigned to study groups. All animals were dosed via intraperitoneal injections twice daily (am and pm) for 28 consecutive days. The timing of dose administration remained consistent (±2 hours) during the dosing phase.
Mice were injected intraperitoneally with streptozocin at 40 mg/kg in citrate buffer, pH 4.5, on 5 consecutive days in an attempt to render them diabetic. […] If the blood glucose level in any animal rose to above 400 mg/dL, the animal was treated with insulin. Every 3 days, at the same time each day, a nick was made on the tail and a drop of blood was collected. Glucose measurements were determined using a glucose meter. Group assignments and dose levels were as follows in Table 1:
Study endpoints included the following: changes in glucose; changes in insulin requirements; and histology of post-mortem pancreata.

[4] = rat, in vivo, SQ, rat, read-out: AUC(0-∝)
[5] = rat, in vivo, SQ, rat, read-out: T1/2 (converted)
[6] = rat, in vivo, iv, rat, read-out: AUC(0-∝)
[7] = rat, in vivo, iv, rat, read-out: T1/2 (converted)

Compound: CC[C@H](C)[C@H](NC(C)=O)C(=O)NCC(=O)N[C@@H](CC(C)C)C(=O)N[C@@H](Cc1c[nH]cn1)C(=O)N[C@@H](CC(=O)O)C(=O)N1CCC[C@H]1C(=O)N[C@H](C(=O)N[C@@H](CCC(N)=O)C(=O)NCC(=O)N[C@H](C(=O)N[C@@H](CCC(=O)O)C(=O)N1CCC[C@H]1C(=O)N[C@@H](CC(N)=O)C(=O)NCC(=O)N[C@@H](CSSC[C@H](NC(=O)CNC(=O)[C@H](CC(N)=O)NC(=O)[C@@H]1CCCN1C(=O)[C@H](CCC(=O)O)NC(=O)[C@@H](NC(=O)CNC(=O)[C@H](CCC(N)=O)NC(=O)[C@@H](NC(=O)[C@@H]1CCCN1C(=O)[C@H](CC(=O)O)NC(=O)[C@H](Cc1c[nH]cn1)NC(=O)[C@H](CC(C)C)NC(=O)CNC(=O)[C@@H](NC(C)=O)[C@@H](C)CC)[C@@H](C)O)[C@@H](C)O)C(N)=O)C(N)=O)[C@@H](C)O)[C@@H](C)O [HIP2B Cys-Dimer, (Ac-Ile-Gly-Leu-His-Asp-Pro-Thr-Gln-Gly-Thr-Glu-Pro-Asn-Gly-Cys-NH2)2] (I: Ac-IGLHDPTQGTEPNGC-NH2 / II: Ac-IGLHDPTQGTEPNGC-NH2; disulfide I:15-II:15)
stability to plasma proteases ([1]; human plasma 37° C.): stable to plasma proteases for at least 1 hr

Compound: (Ac-IGLHDPTQGTEPNGC-NH2)2
not cleaved (human plasma): stable to plasma proteases for at least 1 hr

Compound: Ac-IGLHDPTQGTEPNG-NH2
not cleaved (human plasma): completely stable to plasma proteases after 1 hr of incubation at 37 °C

stability by LC/MS [2]: unchanged | AUC(0-∝) ([3]; IV, rat): 1614.3 ng·h/mL | C1 h ([3]; IV, rat): 114 ng/mL | F ([3]; rat): 0.87 | appearance of animals post-dosing [3]: appeared normal | Cmax ([3]; in vivo, IV, rat): 8240 ng/mL | Tmax ([3]; in vivo, IV, rat): 4.98 min | C0 ([3]; in vivo, IV, rat): 18800 ng/mL | clearance ([3]; in vivo, IV, rat, read-out: apparent mean plasma clearance (converted)): 31.7 mL/min/kg | Vd ([3]; in vivo, IV, rat, read-out: apparent mean volume of distribution): 0.48 L/kg | Tmax ([3]; in vivo, SQ, rat): 10 min | Cmax ([3]; in vivo, SQ, rat, n = 5): 2740 ng/mL | bioavailability ([3]; in vivo, sc, rat, read-out: absolute subcutaneous bioavailability): 87% | CL/F ([3]; in vivo, sc, subcutaneous, rat, read-out: apparent mean Cl/F (converted)): 35 mL/min/kg | time by which concentrations were undetectable ([3]; intravenous, rat): ≤ 45 min | level at 1 h ([3]; male, Sprague Dawley, plasma, sc, SQ, rat, read-out: C1 h): 612 ng/mL | Vd/F ([3]; male, Sprague Dawley, plasma, sc, subcutaneous, rat, read-out: apparent mean V2/F): 1 L/kg | AUC [3, 4]: 1930 ng·h/mL | half-life [3, 5]: 20.4 min | AUC [3, 6]: 2230 ng·h/mL | half-life [3, 7]: 11.4 min | half-life ([3]; rat, in vivo, iv, rat, read-out: terminal phase plasma half-life): 11 min | half-life ([3]; rat, in vivo, sc, subcutaneous, rat, read-out: terminal phase plasma half-life): 20 min | stability to plasma proteases ([1]; human plasma 37° C.): completely stable | stability in vitro in serum ([1]; serum at 37 degrees, relative to HIP 2): significantly more a more stable
Compound: Ac-IGLHDPTQGTEPNG-NH2 [HIP2B, Ac-Ile-Gly-Leu-His-Asp-Pro-Thr-Gln-Gly-Thr-Glu-Pro-Asn-Gly-NH2]
plasma levels ([3]; rat): significantly higher relative to HIP2 or INGAP

Compound: Ac-IGLHDPTQGTEPNGC(PEG)-NH2
not cleaved (human plasma): stable to plasma proteases for up to 1 hr

Compound: Ac-IGLHDPTQGTEPNGE-NH2
not cleaved (human plasma): completely stable up to 1 hr of plasma incubation

stability to plasma proteases ([1]; human plasma 37° C.): completely stable
Compound: Ac-IGLHDPTQGTEPNGE-NH2 [HIP3B, Ac-Ile-Gly-Leu-His-Asp-Pro-Thr-Gln-Gly-Thr-Glu-Pro-Asn-Gly-Glu-NH2]

Compound: Ac-Ile-Gly-Leu-His-Asp-Pro-Thr-Gln-Gly-Thr-Glu-Pro-Asn-Gly-Cys(PEG)-NH2 [HIP2B Cys-PEG]
stability to plasma proteases ([1]; human plasma 37° C.): stable to plasma proteases for up to 1 hr

C1 h ([3]; IV, rat): 0 ng/mL | F ([3]; rat): 0.00 | C1 h ([3]; SQ, rat): 0 ng/mL | appearance of animals post-dosing [3]: appeared normal | C0 ([3]; male, Sprague-Dawley, plasma, IV, rat): 18800 ng/mL | AUC ([3]; male, Sprague-Dawley, rat, plasma, iv, rat, footnote *extrapolated, read-out: AUC(0-∝), extrapolated): 440 ng·h/mL | half-life ([3]; male, Sprague-Dawley, rat, plasma, iv, rat, read-out: T1/2 (converted)): < 1.5 min | half-life ([3]; male, Sprague-Dawley, rat, plasma, subcutaneous, SQ, rat, read-out: T1/2 (converted)): < 1.5 min
Compound: IGLHDPSHGTLPNGS [INGAP, Ile-Gly-Leu-His-Asp-Pro-Ser-His-Gly-Thr-Leu-Pro-Asn-Gly-Ser, reference compound]
plasma levels ([3]; rat): below the lower limit of quantitation; also recorded: undetectable at any time point

Compound: IGLHDPTQGTEPNG
cleaved bond (human plasma): isoleucine-G, major, 1 min; also recorded: L-H, minor

C1 h ([3]; IV, rat): 0 ng/mL | F ([3]; rat): 0.01 | C1 h ([3]; SQ, rat): 0 ng/mL | appearance of animals post-dosing [3]: appeared normal | Cmax ([3]; in vivo, IV, rat): 29 ng/mL | Tmax ([3]; in vivo, IV, rat): 4.98 min | C0 ([3]; in vivo, IV, rat): 18800 ng/mL | Tmax ([3]; in vivo, SQ, rat): 4.98 min | Cmax ([3]; in vivo, SQ, rat, n = 5): 32 ng/mL | AUC [3, 4]: 2.7 ng·h/mL | half-life [3, 5]: 1.2 min | AUC [3, 6]: 442 ng·h/mL | half-life [3, 7]: 1.2 min | new component (proteolysis product) ([1]; human plasma 37° C., 1 min): 5% | new component (proteolysis product) ([1]; human plasma 37° C., 30 min): ≈ 50% | new component (proteolysis product) ([1]; human plasma 37° C., 60 min): ≈ 70%
Compound: IGLHDPTQGTEPNG [HIP2, Ile-Gly-Leu-His-Asp-Pro-Thr-Gln-Gly-Thr-Glu-Pro-Asn-Gly]
plasma levels ([3]; rat): very low levels of HIP2 were observed only at five minutes post dosage; also recorded: Very low levels of HIP2 were detected at 5 minutes; also recorded: observed only at the 5 minute time point

remaining at 1 h, 0.498 mg/ml ([1]; human plasma 37° C., after 60 min, read-out: starting concentration of peptide remaining): ~50%
Compound: IGLHDPTQGTEPNGE [HIP3, Ile-Gly-Leu-His-Asp-Pro-Thr-Gln-Gly-Thr-Glu-Pro-Asn-Gly-Glu]

Compound: WIGLHDPTQGTEPNG [HIP1]
lower mean glucose versus control (diabetic mice; 250 μg IP twice daily for 28 days, STZ diabetic mice): 14.7% | differentiation of progenitor cells within the pancreas into new islet structures (diabetic mice; introduced into diabetic mice): stimulate differentiation of progenitor cells within the pancreas into new islet structures
